Patent publication US20250057808A1, “COMPOSITION COMPRISING BETA LACTAM FOR TREATING ALCOHOL DEPENDENCE AND ALCOHOL ASSOCIATED DISEASES OR CONDITIONS” (Temple University of the Commonwealth System of Higher …, priority 2023, published 2025)
“Also recorded” adds a separate entry of the source. Where two headings read alike, the source gives them in different places.

Columns and labels:
[1] = cited from earlier work
[2] = tested on: GLT-1; assay: GLT-1 expression in mPFC subregions IL and PL (further studies, 100 mg/kg); assay type: in vivo, Male P rats; conditions: MC-100093 100 mg/kg i.p. 5 days
Method: We used micro-punch procedure to dissect the subregions of the NAc such as NAc-core and NAc-shell as well as the subregions of prefrontal cortex such as infralimbic (IL) and prelimbic (PL) from the brain on day 6 after the last injection day. P rats were removed from the cage and rapidly euthanized by CO2 inhalation followed by rapid decapitation with a guillotine. Brains were isolated and immediately frozen on dry ice and stored at −80° C. The stereotaxic coordinates provided by Paxinos and colleague's rat brain stereotactic atlas was used to isolate NAc-core and NAc-shell using a cryostat apparatus (−20° C.), which then kept at −80° C. for later western blot analyses.
Western Blot assay was performed to measure changes in the expression of GLT-1, xCT, mGluR1, mGluR5, PPAR-α, PPARγ, GAPDH and β-tubulin in the NAc-core and NAc-shell as described in previous publications. A lysis buffer containing protease and phosphatase inhibitors was used to generate a homogenate of liver, Nac-core, and Nac-shell samples. The amount of protein was quantified using a detergent compatible protein assay (Bio-Rad, Hercules, CA, USA) for each sample. Samples were mixed with laemmli dye and loaded with equal amounts on polyacrylamide gels (10%), which separated the proteins using electrophoresis. […]

[3] = tested on: RAGE; assay: Western blot RAGE in subregions of mPFC and NAc; assay type: in vivo, Male P rats
Method: All P rats were euthanized by CO2 inhalation and decapitated with a guillotine 24 hours after the final i.p. injection was administered on Day 6 of Week 6. Brains were removed and immediately frozen on dry ice and stored at −80° C. The mPFC subregions (infralimbic cortex and prelimbic cortex) and NAc subregions (core and shell) were dissected using a cryostat machine kept at −20° C. Surgical blades were used to dissect all brain regions following visualized landmarks using the stereotaxic coordinates provided by Paxinos and colleague's rat brain stereotactic atlas. All brain regions were stored in −80° C. Western Blot analyses.
Western blot was performed to determine the expression of BDNF, TNF-α, RAGE, HMGβ-1, and β-tubulin in the subregions of mPFC and NAc as preformed in previous studies.
Brain samples were lysed with a lysing buffer containing protease inhibitors. The amount of protein in each sample was quantified using a detergent compatible protein assay (Bio-Rad, Hercules, CA, USA). Polyacrylamide gels (10%) were loaded with the lysate mixture, and proteins were separated using gel electrophoresis for 1 hour. Proteins were then transferred from the gels onto Polyvinylidene difluoride (PVDF) membranes (BioRad). After transfer, membranes were incubated for 30 minutes in a mixture of nonfat milk in 1×Tris-buffered saline with Tween-20 (TBST) at room temperature. Membranes were then incubated at 4° C. for 24 hours with primary antibodies: anti-rabbit BDNF (1:1000, Abeam, #ab108319), anti-rabbit TNF-α (1:500, Abeam, #ab9739), anti-rabbit HMGβ-1 (1:500, Abeam, #ab18256), and anti-rabbit RAGE (1:1000, Abeam, #ab37407). Anti-mouse-β-tubulin (1:1000, Cell Signaling Technology, #D71G9) was used as a loading control antibody. After incubating for 24 hours, secondary antibody such as donkey anti-rabbit (1:4000, Invitrogen, #31458) or anti-mouse (1:4000, Cell Signaling, #7076S) was added to the membrane for 1 hour at room temperature. The membranes were then washed with 1×TBST three times for 5 minutes each and then dried. Membranes were then incubated in chemiluminescent reagents (Super Signal West Pico, Pierce Inc.) for 2 minutes. Blot images were developed using ChemiDoc. Imaging System and ImageJ software version 1.53a were used to quantify and analyze the expression of BDNF, TNF-α, RAGE, HMGβ-1, and β-tubulin.
The data for the water/saline control group were expressed as 100% based on the values corresponding to the ethanol/saline and ethanol/MC-100093 groups for each set of blotting. Thus, the expression of selected proteins for each group (ethanol/saline group or ethanol/MC-100093 group) was calculated relative to the water/saline control group being set to 100%.
Statistical analyses were performed using GraphPad Prism Version 10. Two-way repeated measures ANOVA followed by Bonferroni post-hoc tests were used to compare water and ethanol intake, and body weight, amongst water group, ethanol/saline group and ethanol/MC-100093 group. A one-way ANOVA test was performed to compare the expression of the studied proteins in selected brain regions in water/saline, ethanol/saline and ethanol/MC-100093 groups. Statistical significance was determined by a p-value of or less than 0.05.

[4] = 100 mg/kg i.p., compared to ethanol/saline group

For `C[C@@H](O)[C@H]1C(=O)N[C@@H]1[C@@H](C)C(=O)N1CCN(C)CC1` [MC-100093], the Brain/plasma ratio ([1]; after intraperitoneal (i.p) injection) is given as 14%, the “Oral bioavailability (in words)” value ([1]; following oral administration) is given as “orally bioavailable; also recorded: high oral bioavailability; also recorded: some bioavailability” and the In vivo half-life ([1]; intraperitoneal route) is given as 4.2 h. The In vivo half-life ([1]; oral route) was 5.26 h, the Oxidative metabolism ([1]; rat, in vivo) was “no oxidative metabolism” and the “Oral bioavailability (F)” value ([1]; rats) was 28%. The “GLT-1 expression in the prelimbic frontal cortex (PL)” value ([2]; vs control/saline and ethanol/saline) was “increased GLT-1 expression in both subregions of mPFC; also recorded: non-statistically significant increase of GLT-1 expression; also recorded: upregulated the expression of GLT-1”, the “GLT-1 expression in the infralimbic prefrontal cortex (IL)” value ([2]; vs ethanol/saline) was “increased GLT-1 expression in both subregions of mPFC; also recorded: significantly higher levels of GLT-1 expression; also recorded: increased the expression of GLT-1; also recorded: upregulated GLT-1 expression” and the “Decrease in RAGE expression in the IL” value [3, 4] was 14%. The “Decrease in RAGE expression in the NAc core” value [3, 4] was 12%, the “RAGE expression in the NAc shell” value [3, 4] was “decreased RAGE expression” and the “RAGE expression in the PL” value [3, 4] was “decreased RAGE expression”. For the same compound, the “RAGE expression in subregions of mPFC and NAc (summary)” value ([3]; post-treatment with MC-100093 100 mg/kg i.p., 100 mg/kg) was “normalized RAGE expression; also recorded: attenuated ethanol-induced increase in receptor for advanced glycation end products (RAGE)”.
